From ChEMBL document CHEMBL5046286, “Discovery of MAP855, an Efficacious and Selective MEK1/2 Inhibitor with an ATP-Competitive Mode of Action” (J Med Chem, 2022) come the findings set out here.

Values after ≈ are worked out from the molar mass of the structure shown. Where only a bound is given, the exact number is not on record here.

The nature of data set [1]: Octanol-water partition coefficient, logP of the compound by LC-MS analysis. Format: physicochemical.
The target in a further data set is Cytochrome P450 3A4 (Homo sapiens, UniProt P08684). The data set is described as follows: Inhibition of CYP3A4 (unknown origin). It counts as ADME.
A short description of data set [2]: Inhibition of ERK phosphorylation in human A-375 cells incubated for 3 hrs by DELFIA assay. It counts as cell-based. To be noted: A-375, 3 h.
Data set [3] is described as follows: Protein binding in human plasma assessed as free fraction. It counts as ADME, cell-free.
In a further data set the test system is A-375. The data set is described as follows: Antitumor activity against human A-375 cells xenografted in CD1 mouse assessed as tumor growth inhibition at 30 mg/kg bid via oral gavage. To be noted: A-375, po, read-out: TGI. Format: functional.
The nature of data set [4]: Clearance in Wistar rat at 3 mg/kg, iv measured up to 24 hrs by LC-MS/MS analysis. It counts as ADME, organism-based. To be noted: in vivo.
The nature of data set [5]: Oral bioavailability in Wistar rat at 10 mg/kg measured up to 24 hrs by LC-MS/MS analysis. Format: ADME, organism-based. To be noted: Wistar, in vivo.
Data set [6] in a line: Permeability in PBS at pH 6.8 incubated for 5 hrs by PAMPA method. Format: ADME. To be noted: pH 6.8, 5 h.
Data set [7] can be described thus: Solubility of compound in water at pH 6.8 by shake flask method based HPLC/UV analysis. Format: physicochemical.
A short description of data set [8]: Solubility of compound in FaSSIF at pH 6.8 by shake flask method based HPLC/UV analysis. Format: physicochemical.
Data set [9] has as its target T1, Dual specificity mitogen-activated protein kinase kinase 1 (Homo sapiens, UniProt Q02750). To be noted: time 120.0 min.
The nature of data set [10]: Clearence in CD-1 mouse at 3 mg/kg, iv. It counts as ADME, organism-based. To be noted: in vivo.
Data set [11] in a line: Dissociation constant, pKa of compound. It counts as physicochemical.
Data set [12] has as its target T1, Dual specificity mitogen-activated protein kinase kinase 1. Nature of the data set: Inhibition of full-length human MEK1 by TR-FRET assay.

T1 sequence (Q02750 whole entry): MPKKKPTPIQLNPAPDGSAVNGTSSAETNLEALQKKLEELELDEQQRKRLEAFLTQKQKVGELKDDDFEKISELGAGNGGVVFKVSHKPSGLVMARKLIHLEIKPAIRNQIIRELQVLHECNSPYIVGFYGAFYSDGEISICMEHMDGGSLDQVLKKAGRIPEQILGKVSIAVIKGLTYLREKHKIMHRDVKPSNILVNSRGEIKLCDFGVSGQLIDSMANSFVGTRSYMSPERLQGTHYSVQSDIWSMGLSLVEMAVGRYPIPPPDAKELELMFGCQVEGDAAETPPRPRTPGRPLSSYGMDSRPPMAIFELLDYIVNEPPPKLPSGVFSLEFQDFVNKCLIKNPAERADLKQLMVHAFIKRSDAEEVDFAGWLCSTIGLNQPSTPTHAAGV
Cytochrome P450 3A4, sequence (P08684 whole entry): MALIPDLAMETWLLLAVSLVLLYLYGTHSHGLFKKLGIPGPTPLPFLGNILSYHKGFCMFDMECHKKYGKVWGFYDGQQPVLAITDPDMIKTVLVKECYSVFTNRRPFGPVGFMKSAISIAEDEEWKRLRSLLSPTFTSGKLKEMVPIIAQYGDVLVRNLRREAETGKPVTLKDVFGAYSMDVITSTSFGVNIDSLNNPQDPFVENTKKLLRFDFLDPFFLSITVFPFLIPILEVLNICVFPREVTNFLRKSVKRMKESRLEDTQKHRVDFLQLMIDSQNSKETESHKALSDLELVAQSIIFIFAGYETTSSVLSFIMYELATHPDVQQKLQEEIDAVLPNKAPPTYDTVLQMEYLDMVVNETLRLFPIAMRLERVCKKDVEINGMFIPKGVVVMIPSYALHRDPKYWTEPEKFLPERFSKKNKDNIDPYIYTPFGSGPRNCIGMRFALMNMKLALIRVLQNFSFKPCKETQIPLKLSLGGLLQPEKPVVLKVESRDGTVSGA

Turning to `COCC(=O)N1CC[C@H](n2c(C)nc3cnc4cc(F)c(-c5ccc(Oc6ncccn6)cc5Cl)cc4c32)[C@@H](F)C1`, the log partition coefficient (logP) in data set [1] amounted to 3.2. Further, half-maximal inhibition on Cytochrome P450 3A4 (IC50) required 5000 nM.

`Cc1nc2cnc3cc(F)c(-c4ccc(Oc5ncccn5)cc4Cl)cc3c2n1C1CCN(C(=O)CO)CC1`: the EC50 in data set [2] was determined as 50000 nM. In addition, in data set [1], the logP amounted to 2. At Cytochrome P450 3A4, the IC50 turned out to be 11000 nM. For the same compound, the free fraction (fraction unbound) in data set [3] amounted to 0.05. The inhibition in vivo at 30 mg/kg with A-375 is 41%. For the same compound, the clearance in data set [4] worked out at 34 mL/min/kg. Besides, in [5], the bioavailability stood at 37%.

Turning to `CC(O)c1nc2cnc3cc(F)c(-c4ccc(Oc5ccccn5)cc4Cl)cc3c2n1C1CCN(CC#N)CC1` (configuration not stated), the “log(permeability)” value in data set [6] is -4.7. Besides, the figures for the solubility (thermodynamic) in data set [7] and in data set [8] were less than 4 µM and 22 µM (≈ 12.3 µg/mL), respectively.

In data set [9], `CC(=O)Nc1cccc(-n2c(=O)n(C3CC3)c(=O)c3c(Nc4ccc(I)cc4F)n(C)c(=O)c(C)c32)c1` displayed a T1/2 of 25 min.

In data set [1], `O=C(CO)N1CC[C@H](n2cnc3cnc4cc(F)c(-c5ccc(Oc6ncccn6)cc5Cl)cc4c32)[C@@H](F)C1` displayed a log partition coefficient (logP) of 2.3. In addition, on Cytochrome P450 3A4, the IC50 was greater than 20000 nM.

With `CC1(n2cnc3cnc4cc(F)c(-c5ccc(Oc6ncccn6)cc5Cl)cc4c32)CCC(CC#N)CC1` (configuration not stated), the logP in data set [1] came out at 4.6. Besides, at Cytochrome P450 3A4, the IC50 is less than 500 nM. Besides, the clearance in data set [10] came out at 6 mL/min/kg.

As to `N#CCN1CCN(n2cnc3cnc4cc(F)c(-c5ccc(Oc6ncccn6)cc5Cl)cc4c32)CC1`, in [2], it took 120 nM to reach half-maximal inhibition (IC50). Also, in [1], the lipophilicity (logP) was found to be 3.2.

`Cc1nc2cnc3cc(F)c(-c4ccc(Oc5ncccn5)cc4Cl)cc3c2n1[C@H]1CC[C@](N)(CC#N)CC1` yielded an IC50 on Cytochrome P450 3A4 of 12100 nM.

For the compound `Cc1nc2cnc3cc(F)c(-c4ccc(Oc5ncccn5)cc4Cl)cc3c2n1[C@H]1CC[C@@](N)(CC#N)CC1`, in data set [1], the logP worked out at 1.2. This compound registered an IC50 against Cytochrome P450 3A4 of 1200 nM.

With `N#CC[C@]1(N)CC[C@@H](n2cnc3cnc4cc(F)c(-c5ccc(Oc6ncccn6)cc5Cl)cc4c32)CC1`, the logP in data set [1] was 5.7. Further, 5700 nM corresponded to half-maximal inhibition against Cytochrome P450 3A4 (IC50).

For `N#CCN1CCC(n2c(CO)nc3cnc4cc(F)c(-c5ccc(Oc6ccccn6)cc5Cl)cc4c32)CC1`, in data set [6], the “log(permeability)” value is reported as -4.5. Moreover, the thermodynamic solubility in data set [7] and in data set [8] was less than 4 µM throughout. The compound also displayed a log partition coefficient (logP) in data set [1] of 4.9.

As for `Cc1nc2cnc3cc(F)c(-c4ccc(Oc5ccccn5)cc4Cl)cc3c2n1C1CCN(CC#N)CC1`, the “log(permeability)” value in data set [6] is -4.1. In addition, the thermodynamic solubility in data set [7] is less than 4 µM; in [8] it was 175 µM (≈ 92.2 µg/mL). The same compound displayed a logP in [1] of 5.1.

In data set [2], `Cc1cc(Oc2ncccn2)ccc1-c1cc2c(cc1F)ncc1nc(C)n([C@H]3CCN(C(=O)CO)C[C@@H]3F)c12` displayed an EC50 of 19000 nM. The same compound yielded a log partition coefficient (logP) in data set [1] of 2. This compound also came in with a half-maximal inhibitory concentration (IC50) against Cytochrome P450 3A4 greater than 20000 nM.

In the case of `COc1cc(Oc2ccccn2)ccc1-c1cc2c(cc1F)ncc1nc(C(C)O)n(C3CCN(CC#N)CC3)c12` (configuration not stated), the “log(permeability)” value in data set [6] is -4.6. The results for the thermodynamic solubility in [7] and in [8] were less than 4 µM and 9 µM (≈ 4.97 µg/mL), respectively. Moreover, the log partition coefficient (logP) in data set [1] is 4.4.

In the case of `Fc1cc2ncc3ncn(C4CCNCC4)c3c2cc1-c1ccc(Oc2ccccn2)cc1Cl`, the “log(permeability)” value in data set [6] is recorded as -4.5. In data set [7], this compound came in with a solubility (thermodynamic) of 47 µM (≈ 22.3 µg/mL). Besides, the lipophilicity (logP) in data set [1] is 4.8. The same compound returned a pKa in [11] of 8.4.

Consider `Cc1nc2cnc3cc(F)c(-c4ccc(Oc5ncccn5)cc4Cl)cc3c2n1C1CCN(CC#N)CC1`, for which the “log(permeability)” value in data set [6] was -4.7. Further, the IC50 in data set [2] amounted to 60 nM; at Cytochrome P450 3A4, 1600 nM. Moreover, the thermodynamic solubility stood at 11 µM (≈ 5.81 µg/mL) in data set [7] and 106 µM (≈ 56 µg/mL) in [8]. The same compound returned a logP in [1] of 3.3. For the same compound, in [4], the clearance stood at 16 mL/min/kg. In addition, the bioavailability in data set [5] was found to be 0%.

`CC(=O)N1CC[C@H](n2c(C)nc3cnc4cc(F)c(-c5ccc(Oc6ncccn6)cc5Cl)cc4c32)[C@@H](F)C1`: in [2], a half-maximal response (EC50) required 64000 nM.

Turning to `COc1cc(Oc2ncccn2)ccc1-c1cc2c(cc1F)ncc1nc(C(C)O)n(C3CCN(CC#N)CC3)c12` (configuration not stated), in data set [6], the “log(permeability)” value is given as -6.9. The thermodynamic solubility is 31 µM (≈ 17.2 µg/mL) in data set [7] and 42 µM (≈ 23.3 µg/mL) in [8]. Moreover, the lipophilicity (logP) in data set [1] was 3.2.

For `N#CCc1ccc(-n2cnc3cnc4cc(F)c(-c5ccc(Oc6ccccn6)cc5Cl)cc4c32)cc1`, the 50% effective concentration (EC50) in data set [2] worked out at 3000 nM. Further, the 50% inhibitory concentration (IC50) at Cytochrome P450 3A4 was less than 500 nM. Also, the clearance in data set [4] was determined as 8 mL/min/kg. The bioavailability in data set [5] came out at 5%.

As to `COc1cc(Oc2ncccn2)ccc1-c1cc2c(cc1F)ncc1nc(C)n(C3CCN(CC#N)CC3)c12`, the “log(permeability)” value in [6] is given as -4.5. Also, the results for the solubility (thermodynamic) in data set [7] and in [8] were 33 µM (≈ 17.3 µg/mL) and 221 µM (≈ 116 µg/mL), respectively. In data set [1], this compound showed a logP of 2.3.

Take `CC(O)c1nc2cnc3cc(F)c(-c4ccc(Oc5ncccn5)cc4Cl)cc3c2n1C1CCN(CC#N)CC1` (configuration not stated): in data set [6], the “log(permeability)” value is -4.7. Further, the thermodynamic solubility in [7] is less than 4 µM; in [8] it was 22 µM (≈ 12.3 µg/mL).

Take `N#CCc1ccc(-n2cnc3cnc4cc(F)c(-c5ccc6[nH]ccc6c5)cc4c32)cc1`: half-maximal inhibition in data set [12] (IC50) was put at 2600 nM. In addition, the EC50 in [2] worked out at 5800 nM.

For the compound `CC1(n2cnc3cnc4cc(F)c(-c5ccc(Oc6ncccn6)cc5Cl)cc4c32)CCN(CC#N)CC1`, the IC50 in data set [2] was found to be 80 nM; on Cytochrome P450 3A4, 1500 nM. Further, in data set [1], the logP came out at 4.2. In data set [10], this compound gave a clearance of 35 mL/min/kg.

Consider `N#CCN1CCC(n2cnc3cnc4cc(F)c(-c5ccc(Oc6ncccn6)cc5Cl)cc4c32)CC1`, for which the “log(permeability)” value in [6] is reported as -4.5. Besides, the logP in data set [1] was determined as 3.

Regarding `COc1cc(Oc2ccccn2)ccc1-c1cc2c(cc1F)ncc1ncn(C3CCN(CC#N)CC3)c12`, the “log(permeability)” value in data set [6] is -4.2. Further, the logP in data set [1] turned out to be 5.3.

For the compound `COc1cc(Oc2ccccn2)ccc1-c1cc2c(cc1F)ncc1nc(CO)n(C3CCN(CC#N)CC3)c12`, the “log(permeability)” value in [6] was -5. Moreover, the thermodynamic solubility in data set [7] is less than 4 µM; in data set [8], 7 µM (≈ 3.77 µg/mL). Besides, the logP in data set [1] was determined as 4.4.

In turn, `Cc1ccnc(Oc2ccc(-c3cc4c(cc3F)ncc3nc(C)n([C@H]5CCN(C(=O)CO)C[C@@H]5F)c34)c(Cl)c2)n1` returned a concentration for a half-maximal effect (EC50) in [2] of 7000 nM. The same compound came in with a logP in data set [1] of 2.6. This compound returned an IC50 against Cytochrome P450 3A4 of 2000 nM.

On to `N#CCN1CCC(n2cnc3cnc4cc(F)c(-c5ccc(Oc6ccccn6)cc5Cl)cc4c32)CC1`, for which, in data set [6], the “log(permeability)” value was -4.2. For the same compound, half-maximal inhibition in [12] (IC50) was put at 70 nM. In data set [2], this compound yielded an EC50 of 400 nM. For the same compound, in data set [1], the logP worked out at 5.3. Moreover, the pKa in [11] came to 4.1.

For `COc1cc(Oc2ccccn2)ccc1-c1cc2c(cc1F)ncc1nc(C)n(C3CCN(CC#N)CC3)c12`, the “log(permeability)” value in data set [6] is -3.9. Besides, the solubility (thermodynamic) in data set [7] was less than 4 µM; in data set [8] it was 22 µM (≈ 11.5 µg/mL). The logP in data set [1] turned out to be 4.6.

Consider `OCCN1CCC(n2cnc3cnc4cc(F)c(-c5ccc(Oc6ccccn6)cc5Cl)cc4c32)CC1`, for which the “log(permeability)” value in data set [6] is on record as -4.4. Further, the thermodynamic solubility in [7] stood at 67 µM (≈ 34.7 µg/mL). In data set [1], this compound registered a logP of 4.6. The pKa in [11] was 6.9.

On to `N#CCN1CCC(n2c(CO)nc3cnc4cc(F)c(-c5ccc(Oc6ncccn6)cc5Cl)cc4c32)CC1`, for which the “log(permeability)” value in [6] was -5.3. Further, the thermodynamic solubility in data set [7] came out at 12 µM (≈ 6.53 µg/mL); in [8] it was 6 µM (≈ 3.26 µg/mL). In addition, the logP in [1] is 3.5.
